{
  "source": "patent EP4729058A1",
  "about": "“AGENT FOR PROMOTING ENERGY CONSUMPTION” (Otsuka Pharmaceutical Factory, Inc., priority 2023, dated 2024)",
  "assay_type_in_all_cases": "in vivo, Mouse, C57BL/6J, male",
  "key": {"[1]": {"experiment": "Analysis of exhaled gas (energy metabolism measurement system for small animals)", "settings": "over 24 hours after morning administration on day 82, 720 mg/10mL/kg oral twice a day, ultra high fat diet, n=10", "method": "A 32-channel energy metabolism measurement system for small animals (ARCO-2000-RAT, Arco System Inc.) was used to measure exhaled gas. Oxygen consumption (mL/min) and Carbon dioxide production (mL/min) of the animals were measured every 10 minutes at an air flow rate of 0.3 L/min. Measurements were carried out for about 24 hours after the completion of oral administration in the morning of the day before necropsy, and total oxygen consumption (mL/kg/day), energy consumption (kcal/kg/day), and lipid burning (mg/kg/day) over 24 hours were calculated using the following formulae: Calculation formulae: [formula] [formula] [formula] (VO2: oxygen consumption, VCO2: carbon dioxide production)\nAnimals after arrival were fed ad libitum a solid diet of ultra high fat diet (D12492). After an acclimatization period, the animals were divided into groups according to the body weight. Then, the animals were individually housed and fed ad libitum the ultra high fat diet. The test substance was orally administered to all groups twice daily (once in the morning and once in the afternoon) (CON group: 0.5% CMC was orally administered; compound A administered group: compound A was orally administered). The day of the first administration was regarded as day 0 from the start of the test. Here, 5 animals from each group were regarded as the first-half animals, and the rest were regarded as the second-half animals, and feeding and administration for the second-half animals were started on day 2 from the start of the test of the first-half animals (day 0 from the start of the test of the second-half animals). In order for the animals to be acclimated to the environment inside an exhaled gas measurement chamber, the animals after oral administration in the morning (9:00) at days 7, 21, and 49 days from the start of the test were individually accommodated in the exhaled gas measurement chamber for 5.5 hours (10:00-15:30) with free access to water under fasting conditions. On days 28 and 65, after oral administration in the morning (11:00), all applicable animals were promptly accommodated individually in the exhaled gas measurement chamber, and acclimated for about 24 hours with free access to water and food. Oral administration was carried out in the afternoon of the same day (15:30) and in the morning of the next day (8:30), and the animals after administration were promptly accommodated in the exhaled gas measurement chamber again. After acclimation, the animals were returned to the cages for housing them. […] Oral administration was carried out in the morning (11:00) and afternoon (15:30) of the same day, and after oral administration in the morning (8:30) of the next day, exhaled gas was measured until necropsy. […]"}, "[2]": {"experiment": "Total cholesterol in plasma at necropsy", "settings": "720 mg/10mL/kg oral twice a day for 12 weeks, ultra high fat diet, n=10, p < 0.01 vs CON", "description": "(§1) Animals after arrival were fed ad libitum a solid diet of ultra high fat diet (D12492). After an acclimatization period, the animals were divided into groups according to the body weight. Then, the animals were individually housed and fed ad libitum the ultra high fat diet. The test substance was orally administered to all groups twice daily (once in the morning and once in the afternoon) (CON group: 0.5% CMC was orally administered; compound A administered group: compound A was orally administered). The day of the first administration was regarded as day 0 from the start of the test. Here, 5 animals from each group were regarded as the first-half animals, and the rest were regarded as the second-half animals, and feeding and administration for the second-half animals were started on day 2 from the start of the test of the first-half animals (day 0 from the start of the test of the second-half animals). […] Oral administration was carried out in the morning (11:00) and afternoon (15:30) of the same day, and after oral administration in the morning (8:30) of the next day, exhaled gas was measured until necropsy. […]"}, "[3]": {"experiment": "White fat tissue weight at necropsy", "settings": "white fat weight per body weight at necropsy, 720 mg/10mL/kg oral twice a day for 12 weeks, ultra high fat diet, n=10", "description": "(§2) Animals after arrival were fed ad libitum a solid diet of ultra high fat diet (D12492). After an acclimatization period, the animals were divided into groups according to the body weight. Then, the animals were individually housed and fed ad libitum the ultra high fat diet. The test substance was orally administered to all groups twice daily (once in the morning and once in the afternoon) (CON group: 0.5% CMC was orally administered; compound A administered group: compound A was orally administered). The day of the first administration was regarded as day 0 from the start of the test. Here, 5 animals from each group were regarded as the first-half animals, and the rest were regarded as the second-half animals, and feeding and administration for the second-half animals were started on day 2 from the start of the test of the first-half animals (day 0 from the start of the test of the second-half animals). In order for the animals to be acclimated to the environment inside an exhaled gas measurement chamber, the animals after oral administration in the morning (9:00) at days 7, 21, and 49 days from the start of the test were individually accommodated in the exhaled gas measurement chamber for 5.5 hours (10:00-15:30) with free access to water under fasting conditions. On days 28 and 65, after oral administration in the morning (11:00), all applicable animals were promptly accommodated individually in the exhaled gas measurement chamber, and acclimated for about 24 hours with free access to water and food. Oral administration was carried out in the afternoon of the same day (15:30) and in the morning of the next day (8:30), and the animals after administration were promptly accommodated in the exhaled gas measurement chamber again. After acclimation, the animals were returned to the cages for housing them. On day 82, all applicable animals were promptly accommodated in the exhaled gas measurement chamber (10:00) before oral administration in the morning. Oral administration was carried out in the morning (11:00) and afternoon (15:30) of the same day, and after oral administration in the morning (8:30) of the next day, exhaled gas was measured until necropsy. The animals were subjected to necropsy in the afternoon on day 83 (13:00). At the time of necropsy, laparotomy was performed under isoflurane anesthesia, and blood was collected from the caudal vena cava. After blood collection, the animals were euthanized by bleeding from the site of blood collection, and organs (fat, skeletal muscle) were collected.\nAt the time of necropsy, fat around the left and right epididymides was taken out, and then the epididymides were discarded. […]"}, "[4]": {"experiment": "Rectal temperature before necropsy", "settings": "before necropsy (day 83); 720 mg/10mL/kg oral twice a day for 12 weeks, ultra high fat diet; n=10; p < 0.01 vs CON", "description": "Before necropsy, a temperature controller for small animals (NS-TC10 Temperature Controller, Neuroscience, Inc.) equipped with a probe for measuring the rectal temperature was inserted into the rectum to measure the rectal temperature.\nas §1"}, "[5]": {"experiment": "Skeletal muscle weight at necropsy", "settings": "720 mg/10mL/kg oral twice a day for 12 weeks, ultra high fat diet, n=10, p<0.05 vs CON", "description": "as §2, with “collected. […]” for “collected.”"}, "Body weight measurement": {"experiment": "Body weight measurement", "settings": "for Body weight: ultra high fat diet, n=10", "method": "Measurements were carried out at the time of arrival and every week from the day of grouping until the time of necropsy. Measurements were also carried out on the day of measuring the body composition and immediately before necropsy.\nas §2"}, "[6]": {"experiment": "Body composition (body composition analyzer, Echo MRI-700)", "settings": "720 mg/10mL/kg oral twice a day, ultra high fat diet, n=10", "method": "The body fat mass and the lean body mass were measured with a body composition analyzer (Echo MRI-700, Hitachi, Ltd.) at 6, 9, and 12 weeks of the test food intake, and divided by the body weight to calculate body fat percentage and lean body mass percentage.\nas §2"}, "[7]": {"settings": "calculated from VO2 and VCO2, p < 0.01 vs CON"}, "[8]": {"settings": "muscle weight per body weight at necropsy, left and right together"}},
  "data": [
    {"smiles": "O=C(O)CC(C(=O)O)N1C(=O)CC(O)(CC(=O)O)C1=O", "note": "(racemic) [Compound A]", "values": [
      {"measurement": "total carbon dioxide production", "setting": "[1]", "result": 28.277, "unit": "mL/min/kg"},
      {"measurement": "total oxygen consumption", "setting": "[1]; p < 0.01 vs CON", "result": 35.682, "unit": "mL/min/kg"},
      {"measurement": "total energy consumption", "setting": "[1]; [7]", "result": 243, "unit": "kcal/kg/day"},
      {"measurement": "total lipid burning", "setting": "[1]; [7]", "result": 17768, "unit": "mg/kg/day"},
      {"measurement": "Total cholesterol", "setting": "[2]", "result": 149.4, "unit": "mg/dL"},
      {"measurement": "Epididymal fat", "setting": "[3]; p < 0.01 vs CON", "result": 32.18, "unit": "g/Kg body weight"},
      {"measurement": "Perirenal fat", "setting": "[3]; p < 0.01 vs CON", "result": 12.12, "unit": "g/Kg body weight"},
      {"measurement": "Interscapular fat", "setting": "[3]; p<0.05 vs CON", "result": 1.88, "unit": "g/Kg body weight"},
      {"measurement": "Mesenteric fat", "setting": "[3]; p<0.05 vs CON", "result": 10.10, "unit": "g/Kg body weight"},
      {"measurement": "Rectal temperature", "setting": "[4]", "result": 35.7, "unit": "°C"},
      {"measurement": "Anterior tibialis muscle", "setting": "[5]; [8]", "result": 3.53, "unit": "g/Kg body weight"},
      {"measurement": "Extensor digitorum longus muscle", "setting": "[5]; [8]", "result": 0.84, "unit": "g/Kg body weight"},
      {"measurement": "Plantaris muscle", "setting": "[5]; [8]", "result": 1.31, "unit": "g/Kg body weight"},
      {"measurement": "Muscles (Total weight of 3 types of muscle)", "setting": "[5]; plantaris, anterior tibial and extensor digitorum longus muscle, per body weight at necropsy", "result": 5.68, "unit": "g/Kg body weight"},
      {"measurement": "Body weight", "setting": "Body weight measurement; 1 week, 720 mg/10mL/kg oral twice a day", "result": 24.9, "unit": "g"},
      {"measurement": "Body weight", "setting": "Body weight measurement; 2 weeks, 720 mg/10mL/kg oral twice a day", "result": 25.1, "unit": "g"},
      {"measurement": "Body weight", "setting": "Body weight measurement; 3 weeks, 720 mg/10mL/kg oral twice a day", "result": 25.3, "unit": "g"},
      {"measurement": "Body weight", "setting": "Body weight measurement; 4 weeks, 720 mg/10mL/kg oral twice a day", "result": 25.4, "unit": "g"},
      {"measurement": "Body weight", "setting": "Body weight measurement; 5 weeks, 720 mg/10mL/kg oral twice a day", "result": 25.8, "unit": "g"},
      {"measurement": "Body weight", "setting": "Body weight measurement; 6 weeks, 720 mg/10mL/kg oral twice a day", "result": 26.4, "unit": "g"},
      {"measurement": "Body weight", "setting": "Body weight measurement; 7 weeks, 720 mg/10mL/kg oral twice a day, p=0.087 vs CON", "result": 26.8, "unit": "g"},
      {"measurement": "Body weight", "setting": "Body weight measurement; 8 weeks, 720 mg/10mL/kg oral twice a day, p=0.082 vs CON", "result": 27.3, "unit": "g"},
      {"measurement": "Body weight", "setting": "Body weight measurement; 9 weeks, 720 mg/10mL/kg oral twice a day, p=0.068 vs CON", "result": 27.8, "unit": "g"},
      {"measurement": "Body weight", "setting": "Body weight measurement; 10 weeks, 720 mg/10mL/kg oral twice a day, p < 0.05 vs CON", "result": 27.2, "unit": "g"},
      {"measurement": "Body weight", "setting": "Body weight measurement; 11 weeks, 720 mg/10mL/kg oral twice a day, p < 0.05 vs CON", "result": 28.3, "unit": "g"},
      {"measurement": "Body weight", "setting": "Body weight measurement; 12 weeks, 720 mg/10mL/kg oral twice a day, p < 0.05 vs CON", "result": 28.9, "unit": "g"},
      {"measurement": "Body weight", "setting": "Body weight measurement; Before administration (baseline)", "result": 25.1, "unit": "g"},
      {"measurement": "body weight gain relative to the body weight gain of the CON group being 100%", "setting": "Body weight measurement; after 12 weeks of administration, (3.8 / 7.2) × 100", "result": 52.8, "unit": "%"},
      {"measurement": "mean body weight gain", "setting": "Body weight measurement; after 12 weeks of administration, CON group 7.2 g", "result": 3.8, "unit": "g"},
      {"measurement": "Lean body mass percentage", "setting": "[6]; 6 weeks, p=0.057 vs CON", "result": 79.6, "unit": "%"},
      {"measurement": "Body fat percentage", "setting": "[6]; 6 weeks, p=0.092 vs CON", "result": 15.6, "unit": "%"},
      {"measurement": "Body fat percentage", "setting": "[6]; 9 weeks, p < 0.05 vs CON", "result": 17.7, "unit": "%"},
      {"measurement": "Lean body mass percentage", "setting": "[6]; 9 weeks, p < 0.05 vs CON", "result": 77.3, "unit": "%"},
      {"measurement": "Body fat percentage", "setting": "[6]; 12 weeks, p < 0.01 vs CON", "result": 19.0, "unit": "%"},
      {"measurement": "Lean body mass percentage", "setting": "[6]; 12 weeks, p < 0.01 vs CON", "result": 74.7, "unit": "%"}
    ]}
  ]
}
